This is an account of results in patent US6656690B2, “Mass spectrometric methods for biomolecular screening” (priority 1998, dated 2003).

“Also recorded” adds a separate entry of the source.

The subject of one test is 18S A site model. The test can be described thus: ESI-FTICR mass spectrometric (MASS) binding assay, mass-tagged 18S A-site 27-mer RNA model. Details: species or system eukaryotic. As to conditions: aminoglycosides 500 nM each, mixture with untagged 16S and tagged 18S. How it is done: The ESI-FTICR mass spectrum depicted in FIG. 26 was acquired from a […] mixture of untagged 16S and tagged 18S in the presence of an equimolar mixture of five aminoglycosides. It is to be understood that other biomolecules may be used in place of the aminoglycosides. The aminoglycosides have been selected from two classes of 2-deoxystreptamines: 4,5-disubstituted (paromomycin, and lividomycin), and 4,6-disubstituted (tobramycin, sisomicin, and bekanamycin), present at 500 nM each. Complexes corresponding to 1:1 binding of individual aminoglycosides were observed between 16S and all members of the aminoglycoside mixture, with the apparent affinities estimated from the abundances of the respective complexes differing substantially. Signal intensities from the complexes with paromomycin (m/z 1925.572) and lividomycin (m/z 1954.790) are consistent with MS-measured dissociation constants of 110 nM and 28 nM, respectively. The intensities of 16S complexes with tobramycin (m/z 1895.960), bekanamycin (m/z 1899.171), and sisomicin (m/z 1891.972) were reduced, consistent with solution dissociation constants of […]. Wang, et al., Biochemistry, 1997, 36, 768-779. […] The average mass measurement error obtained for the complexes in FIG. 26 is 2.1 ppm when m/z differences are measured between the most abundant (4 ^13C) isotope peak of 16S and each complex. […]

A further test addresses 16S A site 27mer RNA. Briefly: ESI-FTICR mass spectrometric (MASS) binding assay, 16S A-site 27-mer RNA model. More on the design: species or system prokaryotic. As to conditions: for complexes observed with 16S (in words): aminoglycosides 500 nM each, mixture with untagged 16S and tagged 18S. The protocol:
The ESI-FTICR mass spectrum depicted in FIG. 26 was acquired from a […] mixture of untagged 16S and tagged 18S in the presence of an equimolar mixture of five aminoglycosides. It is to be understood that other biomolecules may be used in place of the aminoglycosides. The aminoglycosides have been selected from two classes of 2-deoxystreptamines: 4,5-disubstituted (paromomycin, and lividomycin), and 4,6-disubstituted (tobramycin, sisomicin, and bekanamycin), present at 500 nM each. Complexes corresponding to 1:1 binding of individual aminoglycosides were observed between 16S and all members of the aminoglycoside mixture, with the apparent affinities estimated from the abundances of the respective complexes differing substantially. Signal intensities from the complexes with paromomycin (m/z 1925.572) and lividomycin (m/z 1954.790) are consistent with MS-measured dissociation constants of 110 nM and 28 nM, respectively. The intensities of 16S complexes with tobramycin (m/z 1895.960), bekanamycin (m/z 1899.171), and sisomicin (m/z 1891.972) were reduced, consistent with solution dissociation constants of […]. Wang, et al., Biochemistry, 1997, 36, 768-779. […] The spectrum is calibrated using multiple isotope peaks of the (M-5H^+)^5− and (M-4H^+)^4− charge states of the free RNA as internal mass standards which brackets the m/z range in which complexes are observed. The average mass measurement error obtained for the complexes in FIG. 26 is 2.1 ppm when m/z differences are measured between the most abundant (4 ^13C) isotope peak of 16S and each complex. This post calibration scheme is easily automated which enables rapid, high precision mass measurements of affinity selected ligands against multiple targets in a high throughput mode.
A preferred first step of MASS screening involves mixing the RNA target (or targets) with a combinatorial library of ligands designed to bind to a specific site on the target molecule(s). Specific noncovalent complexes formed in solution between the target(s) and any library members are transferred into the gas phase and ionized by ESI. As described herein, from the measured mass difference between the complex and the free target, the identity of the binding ligand can be determined. The dissociation constant of the complex can be determined in two ways: if a ligand with a known binding affinity for the target is available, a relative Kd can be measured by using the known ligand as an internal control and measuring the abundance of the unknown complex to the abundance of the control, alternatively, if no internal control is available, Kd's can be determined by making a series of measurements at different ligand concentrations and deriving a Kd value from the “titration” curve.
Electrospray ionization Fourier transform ion cyclotron resonance mass spectrometry was performed on a solution containing […] 16S RNA (the 27-mer construct shown in FIG. 24) and 500 nM paromomycin is depicted in FIG. 13. A 1:1 complex was observed between the paromomycin and the RNA consistent with specific aminoglycoside binding at the A-site. The insets show the measured and calculated isotope envelopes of the (M-5H+)5− species of the free RNA and the RNA-paromomycin complex. High precision mass measurements were acquired using isotope peaks of the (M-5H+)^5− and (M-4H^+)^4− charge states of the free RNA as internal mass standards and measuring the m/z difference between the free and bound RNA.
ESI-MS measurements of a solution containing a fixed concentration of RNA at different concentrations of ligand were obtained. By measuring the ratio of bound:unbound RNA at varying ligand concentrations, the Kd was determined by 1/slope of the “titration curve”. The MS derived value of 110 nM is in good agreement with previously reported literature value of 200 nM. […]

Turning to `NC[C@@H]1O[C@H](O[C@H]2[C@@H](O)[C@H](O[C@@H]3[C@@H](O)[C@H](N)C[C@H](N)[C@H]3O[C@H]3O[C@H](CO)[C@@H](O)C[C@H]3N)O[C@@H]2CO)[C@H](N)[C@@H](O)[C@@H]1O[C@H]1O[C@H](CO)[C@@H](O)[C@H](O)[C@@H]1O` [lividomycin], the “complexes observed with 18S (in words)” value in the test with 18S A site model is “complete absence of complexes”. Also, the Kd at 16S A site 27mer RNA (ESI-FTICR MS, 16S A site 27mer, read-out: MS-measured dissociation constant (KD)) came out at 0.028 µM. Further, in the test on 16S A site 27mer RNA, the “complexes observed with 16S (in words)” value was “High affinity complexes”. For the same compound, the “enhancement of binding affinity for 16S relative to paromomycin” value in the test with 16S A site 27mer RNA (lividomycin vs paromomycin) is reported as ~4 fold.

In the case of `NC[C@H]1O[C@H](O[C@H]2[C@H](O)[C@@H](O[C@H]3O[C@H](CO)[C@@H](O)[C@H](N)[C@H]3O)[C@H](N)C[C@@H]2N)[C@H](N)[C@@H](O)[C@@H]1O` [bekanamycin], the “complexes observed with 16S (in words)” value in the test on 16S A site 27mer RNA is “reduced”; in the test on 16S A site 27mer RNA (listed as bekamycin), “Weaker complexes”.

Turning to `CN[C@@H]1[C@@H](O)[C@@H](O[C@@H]2[C@@H](O)[C@H](O[C@H]3OC(CN)=CC[C@H]3N)[C@@H](N)C[C@H]2N)OC[C@]1(C)O` [sisomicin], the “complexes observed with 16S (in words)” value in the test on 16S A site 27mer RNA is given as “reduced”; with 16S A site 27mer RNA (listed as sisomycin), “Weaker complexes”.

Regarding `NC[C@H]1O[C@H](O[C@H]2[C@H](O)[C@@H](O[C@H]3O[C@H](CO)[C@@H](O)[C@H](N)[C@H]3O)[C@H](N)C[C@@H]2N)[C@H](N)C[C@@H]1O` [tobramycin], the “complexes observed with 16S (in words)” value with 16S A site 27mer RNA is reported as “reduced; also recorded: Weaker complexes”.

The term Kd denotes the equilibrium constant for the complex coming apart.
